In ChEMBL document CHEMBL1201862, “PubChem BioAssay data set” (2004):
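Protocol summary: plate cells (96-well), add compound at 5 concentrations, incubate 48 h, interpolate endpoints linearly. The concentration for 50% growth inhibition is given as GI50.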 The source made the active and inactive calls. Cut-off read from the data, not from the text of the source: active = GI50 up to about 1.1 µM and inactive = higher.

How the values were obtained:
Assay in all cases: NCI-60 cell line screen, 48 h
[1] = tested on: 786-0
[2] = tested on: COLO 205
[3] = tested on: EKVX
[4] = tested on: HOP-92
[5] = tested on: K562
[6] = tested on: KM12
[7] = tested on: LOX IMVI
[8] = tested on: M19-MEL
[9] = tested on: NCI-H226
[10] = tested on: NCI-H23
[11] = tested on: OVCAR-5
[12] = tested on: OVCAR-8
[13] = tested on: SF-295
[14] = tested on: SK-MEL-2
[15] = tested on: TK-10
[16] = tested on: U-251
[17] = tested on: UACC-257
[18] = tested on: BT-549
[19] = tested on: DU-145
[20] = tested on: T47D

Measured: GI50

O=C1c2ccccc2C(=O)c2c(NCCNCCO)ccc(O)c21
inactive: [1] 3.66 µM | [2] 2.26 µM | [3] 3.98 µM | [4] 3.21 µM | [5] 4.86 µM | [6] 2.52 µM | [7] 1.51 µM | [8] 2.82 µM | [9] 2.71 µM | [10] 2.59 µM | [11] 3.4 µM | [12] 2.39 µM | [13] 4.35 µM | [14] 3.54 µM | [15] 4.65 µM | [16] 3.48 µM | [17] 3.29 µM

CCOc1ccc(NCC2CC/C(=C\c3ccccc3OC)C2=O)cc1 (configuration not stated)
inactive: [1] 3.01 µM | [2] 2.29 µM | [3] 17.4 µM | [4] 19.5 µM | [5] 2.7 µM | [6] 2.99 µM | [7] 6.61 µM | [8] 8.95 µM | [9] 18.6 µM | [10] 19.2 µM | [11] 18.5 µM | [12] 5.18 µM | [13] 18 µM | [14] 20.3 µM | [15] 13.8 µM | [16] 14.3 µM | [17] 7.38 µM

Cc1cc(C)c(-n2c(-c3ccc(Br)cc3)cs/c2=N\N=C2C=C(C(C)(C)C)C(=O)C(C(C)(C)C)=C2)c(C)c1
inactive: [1] > 100 µM | [18] > 100 µM | [2] > 100 µM | [19] > 100 µM | [3] > 100 µM | [4] > 50.1 µM | [5] > 100 µM | [6] > 100 µM | [7] > 100 µM | [8] > 100 µM | [9] > 100 µM | [10] > 100 µM | [11] > 100 µM | [12] > 100 µM | [13] > 41.5 µM | [14] > 100 µM | [20] > 100 µM | [15] > 71.8 µM | [16] 31.2 µM | [17] > 100 µM

O=C1C=CC2(C=C1)C[C@H](NC(=O)OCc1ccccc1)C(=O)O2
inactive: [1] 14.3 µM | [18] 18 µM | [2] 5.93 µM | [19] 30.5 µM | [3] 12.9 µM | [4] 16.3 µM | [5] 3.08 µM | [6] 18.9 µM | [7] 9.93 µM | [8] 18.4 µM | [9] 62.4 µM | [10] 16.1 µM | [11] 20.1 µM | [12] 16 µM | [13] 26.1 µM | [14] 19.3 µM | [20] 15.9 µM | [15] 15.2 µM | [16] 19.3 µM | [17] 16.9 µM

CC(C)CS(=O)(=O)/C(=C(\c1ccc(Br)cc1)S(=O)(=O)CC(C)C)c1ccc(Br)cc1
inactive: [1] > 100 µM | [2] > 100 µM | [3] > 100 µM | [4] > 100 µM | [5] > 100 µM | [6] > 100 µM | [7] > 100 µM | [8] > 100 µM | [9] > 100 µM | [10] > 100 µM | [11] > 100 µM | [12] > 100 µM | [13] > 100 µM | [14] > 100 µM | [15] > 100 µM | [16] > 100 µM | [17] > 100 µM

CCOC(=O)/C(I)=C/c1cc(OC)c(OC)c(OC)c1
inactive: [1] 4.44 µM | [2] 6.12 µM | [3] 15.8 µM | [4] 11.6 µM | [5] 3.86 µM | [6] 6.4 µM | [7] 1.75 µM | [8] 4.12 µM | [9] 4.69 µM | [10] 3.08 µM | [11] 6.52 µM | [12] 6.37 µM | [13] 9.91 µM | [14] 49 µM | [15] 19.3 µM | [16] 6.11 µM | [17] 10.8 µM

CC(=O)Nc1ccc(S(=O)(=O)Nc2cnc3ccccc3n2)cc1
inactive: [1] > 100 µM | [2] > 100 µM | [3] > 100 µM | [4] > 100 µM | [5] > 100 µM | [6] > 100 µM | [7] > 100 µM | [8] > 100 µM | [9] > 100 µM | [10] > 100 µM | [11] > 100 µM | [12] > 100 µM | [13] > 100 µM | [14] > 100 µM | [15] > 100 µM | [16] > 100 µM | [17] > 100 µM

CCCCCC(/C=C/[C@@H]1[C@H]2CC(=O)O[C@H]2C[C@H]1N1CCOCC1)OC1CCCO1 (some centres not stated)
inactive: [1] > 100 µM | [2] > 100 µM | [3] > 100 µM | [4] > 100 µM | [5] > 100 µM | [6] > 100 µM | [7] > 100 µM | [8] > 100 µM | [9] > 100 µM | [10] > 100 µM | [11] > 100 µM | [12] > 100 µM | [13] > 100 µM | [14] > 100 µM | [15] > 100 µM | [16] > 100 µM | [17] > 100 µM
